According to US20230181535A1, “UBIQUITIN-LIGASE INHIBITORS FOR THE TREATMENT OF CANCER” (FUNDACIÓN PROFESOR NOVOA SANTOS, priority 2020, published 2023):

Experiments:
liver cancer HepG2 cells = assay: BrdU proliferation assay, HepG2; type: cell-based, human; settings: 48 h
Method: (§1) For BrdU assays, 1×10^4 of indicated cells were plated per well into a 96-well plate. After 24 h, cells were treated with the indicated inhibitors for 48 h. Three independent experiments were plated with six replicates per each condition. Cells were treated with […] BrdU for 2 h. BrdU incorporation into newly synthesized DNA was measured using a cell proliferation colorimetric immunoassay kit according to the manufacturer's instructions (Roche, Switzerland). Results are expressed as mean±S.D. Results are represented as percentage of positive cells (mean±S.D) of three independent experiments.

HT29 cell line = assay: Invasion assay, HT29 (dose/response); type: cell-based, human; settings: for cell invasion: treated 48 h, 1 μM, 10 μM, 50 μM, vs DMSO
Method: [The procedure below names another cell line; the source lists this cell line under the same test.] For invasion assays, cells were treated with Hakin-1 or DMSO as vehicle for 48 h using 1% FBS during the last 24 hours. 3×10^5 MDCK, MDCK-Hakai or LoVo cells were seeded in a cell invasion chamber (Cell invasion assay kit, Chemicon International) containing medium with 2% FBS. After 72 hours for MDCK and MDCK-Hakai Invasive and 16 h for LoVo cells, invasive cells invaded that reach the lower chamber containing 30% FBS were fixed and stained with crystal violet (Sigma Aldrich, St Louis, Mo.) following the manufacturer's specifications. For migration assays, HT29 cells were cultured with Hakin-1 or DMSO as vehicle for 48 h, using medium without serum the last 24 h. In the cell migration chamber were seeded 3×10^5 HT29 cells (Cell migration kit, Millipore, Bedford, Mass.) containing medium without serum. After 16 h, migrated cells in the lower chamber containing serum with 30% FBS were stained with crystal violet and counted following the manufacturer's specifications. For both invasion and migration assays cells were counted in five fields photographed with an Olympus microscope using a 20× objective, experiments were performed in triplicates for each condition and the assays were repeated at least three times. Results are expressed as mean±SD.

[1] = test system: LoVo colon tumour cell line; assay: MTT cell viability assay, LoVo; type: cell-based; settings: increasing range of concentrations
Method: (§2) For cytotoxicity assays, 1×10^4 cells were seeded per well into a 96-well plate. After 24 h cells were treated with the indicated inhibitors for 72 h and a MTT colorimetric cell viability assay was performed following manufacturer's instructions (Sigma Aldrich, St Louis, Mo.). Absorbance was measured at 570 and 630 nm using a Multiskan Plus Reader (Nanoquant Infinite M200 Tecan Trading AG, Switzerland). Dose-response curves were designed with Graph Pad Prism Software and the half-maximal inhibitory concentration (IC50) values were calculated. Represented data are the mean±SEM of at least three independent experiments with six replicates per condition.

[2] = test system: Hakai-transformed MDCK cells; assay: Phase-contrast cell phenotype, Hakai-MDCK; type: cell-based; settings: Hakai-transformed MDCK cells (mesenchymal phenotype)
Method: (§3) MDCK, HEK293T, HepG2, MCF7 and ACHN cells were cultured in Dulbecco's Modified Eagles Medium (DMEM). MDCK stably expressing Hakai cells (Hakai-MDCK) were previously reported and were growth in DMEM with G418 (800 μg/ml). […] LoVo and PC-3 cells were cultured in F-12K Medium (Kaighn's Modification of Ham's F-12 Medium) and HT-29 and HCT116 cells in McCoy's 5a Medium Modified. 5637 cells were cultured in RPMI medium. All culture media were supplemented with 1% penicillin/streptomycin and 10% of heat-inactivated fetal bovine serum (FBS) at 37° C. in a humidified incubator with 5% CO2. Cells were monthly tested for mycoplasma contamination and used only for 1-3 months after defrosted. LoVo and HT29 cells were authenticated with the StemElite ID system (Promega). For phase-contrast images, culture cells were photographed with a Nikon Eclipse-TI microscope.

HT-29 cells = assay: Phase-contrast cell phenotype, HT-29; type: cell-based, human
Method: as §3

[3] = test system: Hakai-dependent ubiquitination of the E-cadherin complex; assay: Hakai-dependent ubiquitination of the E-cadherin complex (immunoprecipitation); type: cell-based; settings: 293T cells transfected with Flag-Hakai, myc-E-cadherin, v-Src, HA-ubiquitin; IP anti-E-cadherin
Method: For immunoprecipitation experiments, 293 cells were transfected with 3 μg Src, 4 μg Flag-Hakai, and 2 μg HA-ubiquitin and 3 μg E-cadherin with Lipofectamin 2000 (Invitrogen, UK). 24 h after transfection, cells were lysed for 20 min in 1 ml of 1% Triton X-100 lysis buffer (20 mM Tris-HCl pH 7.5, 150 mM NaCl and 1% Triton X-100) containing 10 μg/ml leupeptin, 10 μg/ml aprotinin and 1 mM phenylmethanesulphonyl fluoride (PMSF), supplemented with 10 mM N-ethylmaleimide and 2.5 mM sodium orthovanadate. After centrifugation at 18.000 g for 10 min, the supernatants were immunoprecipitated for 2 h with 2 μg of anti-E-cadherin antibody bound to 60 μl of protein G PLUS-Agarose beads, followed by SDS-polyacrylamide gel electrophoresis (PAGE) and western blotting with the indicated antibodies as previously reported.

tumour culture cells = assay: In vitro antitumor effect (summary of cell assays); type: cell-based
HT29 cells = assay: BrdU proliferation assay, HT29; type: cell-based, human; settings: 48 h
Method: as §1

[4] = test system: bladder cancer 5637 cells; assay: BrdU proliferation assay, 5637; type: cell-based, human; settings: 48 h
Method: as §1

[5] = test system: HT-29 colon tumour cell line; assay: MTT cell viability assay, HT-29; type: cell-based, human; settings: increasing range of concentrations
Method: as §2

[6] = test system: normal epithelial MDCK cell line; assay: MTT cell viability assay, MDCK; type: cell-based; settings: compared with Hakai-MDCK
Method: as §2

[7] = test system: non-cancerous HEK293T cells; assay: MTT cell viability assay, HEK293T; type: cell-based, human; settings: concentrations tested in the previous assays
Method: as §2

| Compound | cell proliferation (BrdU) (liver cancer HepG2 cells) | cell invasion (HT29 cell line) | cytotoxicity (cell viability, MTT) [1] | cell phenotype by phase contrast [2] | cell phenotype by phase contrast (HT-29 cells) | Hakai-dependent ubiquitination of E-cadherin complex [3] | concentration at which the in vitro antitumor effect was observed (tumour culture cells) | cell proliferation (BrdU) (HT29 cells) | cell proliferation (BrdU) [4] | cytotoxicity (cell viability, MTT) [5] | sensitivity to treatment (cell viability, MTT) [6] | IC50 (HT29 cell line; Homo sapiens, HT-29, treated 48 h, read-out: concentration at which 50% inhibition of invasion was achieved) | cytotoxic effect (cell viability, MTT) [7] |
| --- | --- | --- | --- | --- | --- | --- | --- | --- | --- | --- | --- | --- | --- |
| O=C(O)c1ccc(-n2nnnc2SCC(=O)c2ccc([N+](=O)[O-])cc2)cc1 [Hakin-1, 4-(5-[2-(4-nitrophenyl)-2-oxoethyl]thiol-1H-tetrazol-1-yl)benzoic acid] | inhibited cell proliferation | reduce cell invasion | important inhibitory response | induction of an epithelial phenotype | modestly induce an epithelial phenotype | reduction of Hakai-dependent ubiquitination of E-cadherin complex | 100 to 200 µM | reduced cell proliferation | inhibited cell proliferation | important inhibitory response | more resistant |  |  |
| O=C(O)c1ccc(-n2nnnc2SCC(O)c2ccc([N+](=O)[O-])cc2)cc1 (centres unmarked) [MKH1] |  | reduce cell invasion |  |  |  |  |  |  |  |  |  | ~1000 nM | no cytotoxic effect |
